# From PubChem BioAssay (NCI)
#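 Exposure lasted 48 hours, with cells grown in 96-well plates and compounds tested at five concentrations. At the GI50, growth is halved. TGI denotes the concentration required for complete inhibition of growth.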
# Legend:
# Assay in all cases: NCI anticancer screen, dose series, 48 h
# [1] = system: 786-0 renal
# [2] = system: HCC-2998 colon
# [3] = system: HOP-92 NSCLC
# [4] = system: LOX IMVI melanoma
# [5] = system: MOLT-4 leukemia
# [6] = system: NCI-H522 lung
# [7] = system: OVCAR-8 ovarian
# [8] = system: SN12C renal
# [9] = system: HL-60(TB) leukemia
# [10] = system: NCI-H226 lung
SMILES,TGI [1] [µM],TGI [2] [µM],TGI [3] [µM],TGI [4] [µM],TGI [5] [µM],TGI [6] [µM],TGI [7] [µM],TGI [8] [µM],TGI [9] [µM],TGI [10] [µM],GI50 [1] [µM],GI50 [2] [µM],GI50 [3] [µM],GI50 [4] [µM],GI50 [5] [µM],GI50 [10] [µM],GI50 [6] [µM],GI50 [7] [µM],GI50 [8] [µM],GI50 [9] [µM]
O=C(O)CCC(NC(=O)c1ccccc1)C(=O)O (centres undefined),> 100,> 100,> 100,> 100,> 100,> 100,> 100,> 100,,,,,,,,,,,,
Cc1c(C(=O)CC(=O)C(=O)Nc2ccc(Cl)cc2)[n+](=O)c2ccccc2n1[O-],> 100,,> 100,,> 100,> 100,> 100,> 100,> 100,> 100,,,,,,,,,,
C/C=C1/CCC2c3[nH]c4ccccc4c3CCN2C1 (centres undefined),> 100,,86.6,,> 100,> 100,> 100,> 100,> 100,> 100,,,,,,,,,,
CC1=NN(C(=O)CC(=O)NC(=O)CC(=O)Nc2ccccc2F)C(=O)C1N=Nc1ccc([N+](=O)[O-])cc1 (centres undefined),64.6,> 100,> 100,35.8,77.7,,> 100,> 100,,> 100,,,,,,,,,,
O=C(NCCCCCCNC(=O)OCCSCCn1cc(C(=O)NC(=O)OCc2ccccc2)c(=O)[nH]c1=O)OCCSCCn1cc(C(=O)NC(=O)OCc2ccccc2)c(=O)[nH]c1=O,> 100,> 100,> 100,> 100,> 100,> 100,> 100,> 100,,> 100,,,,,,,,,,
COc1cc(/C=N/NC(=O)c2cnn3c2NC(c2ccccc2)C3)ccc1Oc1ccccc1 (centres undefined),5.65,30,8.58,2.36,20.4,2.62,12.2,4.22,,7.95,1.19,3.6,2.06,0.736,1.99,2.17,0.366,2.57,1.78,
CC(=O)OCC(=O)[C@@]12OC(C)(C)O[C@@H]1C[C@H]1[C@@H]3CC=C4C[C@@H](O)CC[C@]4(C)[C@H]3CC[C@@]12C,> 100,,,> 100,> 100,> 100,> 100,> 100,> 100,> 100,,,,,,,,,,
O=C(O)CCSC(=O)Nc1ccccc1F,> 100,> 100,,> 100,> 100,> 100,,> 100,> 100,> 100,,,,,,,,,,
COc1ccc(S(=O)(=O)N/N=C/c2cc(I)cc([N+](=O)[O-])c2O)cc1OC,> 100,> 100,46,> 100,64.8,,> 100,> 100,57.5,62.1,,,,,,,,,,
COC(=O)C1=C(C(=O)OC)SC(=C(Cl)C(=S)Nc2ccccc2O)S1,10.1,,> 50,24.5,> 50,23.3,> 50,19.7,> 50,39.3,0.686,,40,12.9,46.8,13.9,10.3,25.3,9.69,16.6
O=C1C2C(c3ccccc3)NC(c3ccccc3)C1C(c1ccccc1)NC2c1ccccc1 (centres undefined),> 100,,> 100,> 100,> 100,> 100,> 100,> 100,> 100,> 100,,,,,,,,,,
Cc1cc2[nH]c(=O)c3c4ccccc4cn3c2cc1C,22.7,16.7,30.2,4.02,19.4,31.1,25.9,20.3,,36.7,10.7,4.04,15.4,2.04,5.68,15.1,14.5,7.07,6.02,
Cc1[nH]c(=O)n2c(C)nnc2c1C(=O)Nc1cc(Cl)cc(Cl)c1,> 100,,64,> 100,> 100,28.2,> 100,66.5,47.9,68.5,,,,,,,,,,
Nc1nc(N)c2c(n1)NC(c1ccc(F)cc1)C1CCc3ccccc3C1=N2 (centres undefined),20.1,6.67,6.59,16.1,,21.2,27,21.6,,24.5,6.9,2.44,1.17,3.98,,5.97,5.66,8.07,7.8,
FC(F)(F)c1ccc(C#Cc2ccccc2C#Cc2ccccc2)cc1,> 100,53.1,,55.3,87.2,45.4,> 100,,,99.9,46.1,32.7,,26.2,35,30.1,21.4,59.2,,
O=c1oc2cc(N=Cc3ccc4c(c3)OCO4)ccc2c2ccccc12,> 100,,> 100,> 100,> 100,> 100,> 100,> 100,> 100,> 100,,,,,,,,,,
c1ccc2cc3[s+]snc3cc2c1,> 100,> 100,,> 100,> 100,> 100,> 100,> 100,> 100,> 100,,,,,,,,,,
O=c1[nH]c(=O)c2cc(C3CC(O)C(CO)O3)ccc2[nH]1 (centres undefined),> 100,> 100,> 100,> 100,> 100,> 100,> 100,> 100,,> 100,> 100,> 100,> 100,> 100,> 100,> 100,> 100,> 100,> 100,
O=C(c1ccccc1)[C@@H]1C[C@H](Sc2ccccc2)c2cc(Cl)ccc2N1,33.6,51.8,,47.7,60.9,48.6,66.8,33.7,,62.9,,,,,,,,,,
C[N+]1(C)C/C(=C\c2ccccc2)C(=O)/C(=C/c2ccccc2)C1,> 100,> 100,> 100,,> 100,,> 100,73.2,> 100,> 100,,,,,,,,,,
O=Cc1ccccc1B(O)O,> 100,,,> 100,26.1,97.9,> 100,> 100,> 100,> 100,,,,,,,,,,
Cc1cc(NS(=O)(=O)c2ccc(NC(=O)c3ccc(Cl)c4c(Nc5ccc(S(=O)(=O)N=C(N)N)cc5)c5ccccc5nc34)cc2)no1,> 100,41.6,,98.7,41.6,61.6,> 100,> 100,,,,,,,,,,,,
COc1cc(C(O)C(=O)c2nc3ccc([N+](=O)[O-])cc3[nH]c2=O)ccc1O (centres undefined),> 100,> 100,,> 100,> 100,> 100,> 100,> 100,> 100,> 100,,,,,,,,,,
Cc1ccc2nc(-c3ccccc3)c(N=O)n2c1,> 100,,> 100,> 100,> 100,> 100,> 100,61,,> 100,,,,,,,,,,
COc1cc(NC(=O)CSc2nc3ccc(C)cc3c(=O)n2Cc2ccccc2)cc(OC)c1OC,14.6,> 100,,> 100,> 100,47,> 100,> 100,> 100,22.3,3.2,> 100,,55,> 100,3.2,4.63,4.42,25.4,> 100
O=S(=O)(c1cccc2c(Cl)cccc12)N1CCCNCC1,23.1,,25.8,26.3,26,37.1,31.4,24.6,,25.3,11.1,,11,13.4,12.8,11.8,19.7,14.1,12.2,
O=C(Nc1ccc2[nH]c(=S)sc2c1)Nc1ccccc1F,> 100,> 100,,> 100,> 100,38.4,> 100,> 100,93.5,,51.6,30.6,,16.3,22.4,,10.3,56.5,41.9,23.9
Cc1cc(Cc2cc(C)cc(C(C)(C)C)c2O)c(O)c(Cc2cc(C)cc(C(C)(C)C)c2O)c1,9.09,,9.36,10.9,5.83,4.28,15.1,8.28,5.23,11.5,,,,,,,,,,
O=c1nc(NC(c2ccccc2)(c2ccccc2)c2ccccc2)ccn1CCNCCn1ccc(NC(c2ccccc2)(c2ccccc2)c2ccccc2)nc1=O,31.5,17.1,24.4,7.86,,21.5,38.7,44.1,,34.7,,,,,,,,,,
